Data taken from US20080280837A1, “Biologically Active Compounds with Anti-Angiogenic Properties” (priority 2004, published 2008).

Columns and labels:
[1] = ActiveTox suite of toxicity assays (LDH release, proliferation, ATP content, caspase 3/7, cyp1A induction, P-glycoprotein inhibition, cyp3A induction via PXR or GR); assay type: cell-based; conditions: 10 and 100 μM, quadruplicate
Method: Compounds were analyzed in eight separate assays at concentrations of 10 and 100 μM in quadruplicate. Compounds were assayed tar toxicity via LDH release, inhibition of proliferation, ATP content, caspase 3/7 activation. Compounds were assayed for induction of cyp1A and P-glycoprotein inhibition. Compounds were also assayed for cyp3A induction under conditions which favor activation via the pregnane receptor (PXR) or the glucorticord receptor (GR). Appropriate positive and negative controls were included in each case.

Jurkat cell line = test: Cell proliferation assay (CellTiter 96 AQueous One) as indicator of toxicity, Jurkat; assay type: cell-based; conditions: 100 μM
Method: A simple cell proliferation assay was used to determine the in vitro cytotoxicity of “compound 1.” Selected cell lines were cultured according to their specific requirements. The optimal cell density required for each cell line was determined. All compounds were tested at a single concentration in triplicate. Cell viability was determined using the CellTiter 96® AQueous One reagent from Promega Corporation.
Assays are performed by adding the test compound to the cells in culture and incubating the cells for a fixed period. The number of viable cells remaining after the incubation period is determined by adding a small amount of the CellTiter 96® AQueous One Solution Reagent directly to culture wells, incubating for 1-4 hours and then recording absorbance at 490 nm with a 96 well plate reader.
Controls in the assay include untreated cells, wells without cells and cells treated with know cytotoxic agents. Data is presented as % inhibition of cell proliferation.

SSTR-3 = target: T1, SSTR-3 (Homo sapiens, UniProt P32745); test: Radioligand binding screen against somatostatin subtype SSTR-3
T1 construct: expressed in transfected cells
Method: Receptor membrane preparations containing the desired cloned receptor (for example cloned human somatostatin receptor subtype 5, SSTR5) and radio-labeled ligand (for example 3-[^125I]iodotyrosyl^11 Somatostatin-14)) were diluted at the concentration required for testing and according to the specific parameters associated with the selected receptor-ligand combination, including receptor Bmax, ligand Kd and any other parameters necessary to optimize the experimental conditions. When tested for competition activity to the reference ligand, “compound 1” was mixed with membrane suspension and the radiolabeled reference ligand (with or without an excess of cold ligand to the receptor for determination of non-specific binding) and incubated at the temperature required by internal standard operating procedures. Following incubation, the binding reaction was stopped by the addition of ice-cold washing buffer and filtered on appropriate filters, which are then counted. Data analysis and curve-fitting was performed with XLfit (IDBS).
10 mM solutions of test compounds in 100% DMSO were prepared. ˜160 μl was used for each dilution (20 μl/well in triplicate).
A 1.25 mM assay stock was prepared by making a 1:8 dilution of the 10 mM solution. (To 30 μL of the 10 mM solution was added 210 μL milli-Q H2O. A 1:5 dilution series in milli-Q H2O was then prepared.
In primary screening experiments compounds were tested in duplicate for a particular concentration.

[2] = system: Human Umbilical Vein Endothelial Cells (HUVEC); test: Endothelial cell proliferation assay (MTS); assay type: cell-based; conditions: 48 hrs
Method: Human Umbilical Vein Endothelial Cells (HUVEC from Clonetics) were plated in 96 well plates at 1000 cell per well in EGM-2 medium (Clonetics). Cells were grown overnight at 37° C. in 5% CO2. Fresh EGM-2 medium containing compound at the desired concentration was added to the wells and the cells allowed to grow for a further 48 hrs. A MTS (Promega) colorimetric assay was performed after 48 hrs to determine cell growth according to the manufacturers instructions. Results are presented in terms of percentage growth.

[3] = system: MV522 human NSCLC tumour xenograft; test: Nude mouse model of human MV522 non-small cell lung cancer tumours; assay type: in vivo, nude mice
Method: Initial Maximum Tolerated Dose (MTD) studies were done in male nude mice to determine the appropriate intravenous dosing regimen for the MV522 human NSCLC tumour model. A range of doses between 0 and 50 mg/Kg for 28 days (qdx28) were tested. Mice were randomized into groups with 5 animals per group including vehicle control. Animals were weighed twice weekly starting on day one and observed daily for adverse reactions or toxicity due to the agent. MTD studies determined the selection of 20 mg/kg and 35 mg/kg for intravenous dosing once per day for 28 days in the MV522 human NSCLC tumour xenograft model.
Male nude mice (nu/nu) between 5 and 6 weeks of age weighing approximately 20 g were implanted subcutaneously (s.c) by trocar with fragments of MV522 human tumour carcinomas harvested from s.c growing tumours in host mice. MV-522 is a metastatic human lung adenocarcinoma line. When tumours reached approximately 72 mg in size animals were pair matched into treatment and control groups with 10 mice in each group. Each mouse was tagged and followed individually throughout the experiment.
“Compound 1” was administered i.v. in a saline vehicle from day one. Vehicle control group animals were administered saline i.v. There were nine treatment groups including the vehicle control group. […]
At the end of the treatment period the mice were weighed and sacrificed. Each tumour was excised and weighed and a mean actual tumour weight (mg) per group was calculated along with the mean actual volume (mm^3). […] Mean tumour regression was determined using the formula [1−(mean actual tumour weightFINAL/mean tumour weightDAY 1)×100%].

T1 sequence (P32745 whole entry): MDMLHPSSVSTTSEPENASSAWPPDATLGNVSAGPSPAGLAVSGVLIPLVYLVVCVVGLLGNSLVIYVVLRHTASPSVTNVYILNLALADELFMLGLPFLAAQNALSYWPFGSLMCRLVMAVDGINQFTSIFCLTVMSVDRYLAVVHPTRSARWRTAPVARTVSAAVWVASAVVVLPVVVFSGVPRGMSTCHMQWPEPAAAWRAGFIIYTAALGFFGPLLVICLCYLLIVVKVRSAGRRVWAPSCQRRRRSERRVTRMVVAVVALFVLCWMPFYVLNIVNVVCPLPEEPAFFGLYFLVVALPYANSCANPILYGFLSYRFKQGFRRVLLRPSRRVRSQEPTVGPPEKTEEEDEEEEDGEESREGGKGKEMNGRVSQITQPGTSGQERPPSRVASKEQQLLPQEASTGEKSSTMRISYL

Compound: COC[C@H]1O[C@H](OCCc2ccccc2)[C@H](NC(=O)CCCN)[C@@H](OCc2ccc3ccccc3c2)[C@@H]1O [Compound 1]
- Effects in the eight ActiveTox assays [1]: no statistical effects
- Inhibition of cell proliferation (Jurkat cell line): no inhibitory effect
- IC50 (SSTR-3; concentration required to displace 50% of the competitive radioligand, read-out: IC50 SSTR3): 8.5 µM
- selectivity SSTR3 (SSTR-3; normalized IC50: lowest IC50 for a compound = 1): 26.4
- Hillslope SSTR3 (SSTR-3; slope of binding curve): 1.04
- Percent cell growth at 125 µM ([2]; 125 uM): 69%
- Percent cell growth at 250 µM ([2]; 250 uM): 17%
- Tumour growth inhibition (TGI) ([3]; group nine: 35 mg/kg compound 1 i.v. qdx28 and paclitaxel 16 mg/kg i.p. qdx5): 75.1%
- Tumour growth inhibition (TGI) ([3]; group seven: 20 mg/kg compound 1 i.v. qdx28 and paclitaxel 16 mg/kg i.p. qdx5): 56.9%
